Data on 20 compounds can be found in patent US9656992B2, “Pyrimidine compounds for the treatment of hepatitis C” (priority 2013, dated 2017).

The assay deals with HCV pseudoparticles, genotype 1a HCV E1 and E2 envelope (H77C isolate). Nature of the assay: HCV pseudoparticle infection assay (luciferase reporter, entry into Huh7 cells). The format is cell-based. The conditions noted are these: Hepatitis C virus, Huh-7, 48 h.
The mark [1] stands for this setting: read-out: EC50 (nM) 1a (H77C), HCV pseudoparticles genotype 1a (H77C), Huh7 cells, luciferase measured 2 days after infection, average of duplicates.
[2] abbreviates: read-out: EC50 (nM) 1a (H77C), HCV pseudoparticles genotype 1a (H77C), Huh7 cells, luciferase measured 2 days after infection, class symbols.

Read-outs that look alike come from different tables or passages of the source.

What is called EC50 is the midpoint of the concentration-response curve. Consider `CC(C)(CNC(=O)C(N)=O)CNC(=O)c1ccc(Nc2cc(NCc3ccc(Cl)cc3)nc(OCC(F)(F)F)n2)nc1` [Example 1001], for which the EC50 is, setting by setting: under setting [1], 1.47 nM; under setting [2], 0.01 to 10 nM. As to `CC(C)(CNC(=O)C(=O)Nc1ccccc1)CNC(=O)c1ccc(Nc2cc(NCc3ccc(Cl)cc3)nc(OCC(F)(F)F)n2)nc1` [Example 1002], the EC50 under setting [2] was in the range of 0.01 to 10 nM. As to `Cc1ccc(NC(=O)C(=O)NCC(C)(C)CNC(=O)c2ccc(Nc3cc(NCc4ccc(Cl)cc4)nc(OCC(F)(F)F)n3)nc2)cc1` [Example 1003], the EC50 runs as follows: under setting [1], 0.214 nM; under setting [2], 0.01 to 10 nM. For `CC(C)CNC(=O)C(=O)NCC(C)(C)CNC(=O)c1ccc(Nc2cc(NCc3ccc(Cl)cc3)nc(OCC(F)(F)F)n2)nc1` [Example 1004], the EC50 under setting [2] was in the range of 0.01 to 10 nM. Same read-out and setting: next, `CC(C)(CNC(=O)C(=O)NC1CCCCC1)CNC(=O)c1ccc(Nc2cc(NCc3ccc(Cl)cc3)nc(OCC(F)(F)F)n2)nc1` [Example 1005]: 0.01 to 10 nM; `CN(C)C(=O)C(=O)NCC(C)(C)CNC(=O)c1ccc(Nc2cc(NCc3ccc(Cl)cc3)nc(OCC(F)(F)F)n2)nc1` [Example 1006]: 10 to 1000 nM. Still for that read-out and setting: next, `CC(C)(CNC(=O)C(=O)N1CCc2ccccc2C1)CNC(=O)c1ccc(Nc2cc(NCc3ccc(Cl)cc3)nc(OCC(F)(F)F)n2)nc1` [Example 1007]: 0.01 to 10 nM; `CC(C)(CNC(=O)C(=O)Nc1ccc(F)cc1F)CNC(=O)c1ccc(Nc2cc(NCc3ccc(Cl)cc3)nc(OCC(F)(F)F)n2)nc1` [Example 1008]: 0.01 to 10 nM. The same measure, in the same setting: for `CNC(=O)C(=O)NCC(C)(C)CNC(=O)c1ccc(Nc2cc(NCc3ccc(Cl)cc3)nc(OCC(F)(F)F)n2)nc1` [Example 1009] the value was 0.01 to 10 nM. As for `CC(C)(CNC(=O)C(=O)N1CCCCC1)CNC(=O)c1ccc(Nc2cc(NCc3ccc(Cl)cc3)nc(OCC(F)(F)F)n2)nc1` [Example 1010], the EC50 under setting [2] lay within 10 to 1000 nM.

Regarding `Cc1nnc(NC(=O)C(=O)NCC(C)(C)CNC(=O)c2ccc(Nc3cc(NCc4ccc(Cl)cc4)nc(OCC(F)(F)F)n3)nc2)s1` [Example 1011], the EC50 under setting [2] was in the range of 10 to 1000 nM. Regarding `CC(C)(CNC(=O)C(=O)Nc1ccc(F)cc1)CNC(=O)c1ccc(Nc2cc(NCc3ccc(Cl)cc3)nc(OCC(F)(F)F)n2)nc1` [Example 1012], the EC50 by setting is: under setting [1], 0.482 nM; under setting [2], 0.01 to 10 nM.

Turning to `CC(C)(CNC(=O)C(=O)Nc1nccs1)CNC(=O)c1ccc(Nc2cc(NCc3ccc(Cl)cc3)nc(OCC(F)(F)F)n2)nc1` [Example 1013], the EC50 under setting [2] lay in the range of 0.01 to 10 nM. Take `CC(C)(CNC(=O)C(=O)Nc1cccc(F)c1)CNC(=O)c1ccc(Nc2cc(NCc3ccc(Cl)cc3)nc(OCC(F)(F)F)n2)nc1` [Example 1014]: the EC50 under setting [2] was 0.01 to 10 nM. On to `Cc1cc(NC(=O)C(=O)NCC(C)(C)CNC(=O)c2ccc(Nc3cc(NCc4ccc(Cl)cc4)nc(OCC(F)(F)F)n3)nc2)no1` [Example 1015], for which the EC50 runs as follows: under setting [1], 1.31 nM; under setting [2], 0.01 to 10 nM. Take `CC(C)(CNC(=O)C(=O)Nc1nncs1)CNC(=O)c1ccc(Nc2cc(NCc3ccc(Cl)cc3)nc(OCC(F)(F)F)n2)nc1` [Example 1016]: the EC50 is 56.8 nM under setting [1] and 10 to 1000 nM under setting [2]. For `CC(C)(CNC(=O)C(=O)N1CCOCC1)CNC(=O)c1ccc(Nc2cc(NCc3ccc(Cl)cc3)nc(OCC(F)(F)F)n2)nc1` [Example 1017], in that order: 26.8 nM and 10 to 1000 nM.

As to `CC(C)(CNC(=O)C(=O)NCc1ccc(F)cc1)CNC(=O)c1ccc(Nc2cc(NCc3ccc(Cl)cc3)nc(OCC(F)(F)F)n2)nc1` [Example 1018], the EC50 under setting [2] is 0.01 to 10 nM.

On to `CC(C)(CNC(=O)C(=O)Nc1cc(F)cc(F)c1)CNC(=O)c1ccc(Nc2cc(NCc3ccc(Cl)cc3)nc(OCC(F)(F)F)n2)nc1` [Example 1019], for which the EC50 under setting [2] lay within 10 to 1000 nM. For `CC(C)(CNC(=O)C(=O)Nc1ccc(Cl)cc1)CNC(=O)c1ccc(Nc2cc(NCc3ccc(Cl)cc3)nc(OCC(F)(F)F)n2)nc1` [Example 1020], under setting [2], the EC50 was 0.01 to 10 nM.
